Assay results reported in patent US8318723B2, “Pyrazine compounds, their use and methods of preparation” (Boehringer Ingelheim International GmbH, priority 2006, dated 2012).

Tests used:
PIM-2 [1] = target: T1, PIM-2 (Homo sapiens, UniProt Q9P1W9); assay: PIM-2 assay, IC50 determination (luciferase-luciferin ATP depletion, 10-point dose response); assay type: biochemical; conditions: for IC50: 10 nM PIM-2, 1 μM ATP, 50 μM peptide substrate, 15 minutes at room temperature
PIM-2 [2] = target: T1, PIM-2; assay: PIM-2 assay, single-concentration screen (luciferase-luciferin ATP depletion); assay type: biochemical; conditions: percent of control at 3 μg/mL final assay concentration, 1 μM ATP, 5 μM peptide substrate, 60 minutes
Experimental: The activity of PIM-2 is measured using luciferase-luciferin based ATP detection reagent to quantify ATP depletion resulting from kinase-catalyzed phosphoryl transfer to a peptide substrate. The screen utilizes the Zymark Allegro UHTS system to dispense reagents, buffers and test compounds. To Greiner 384-well, white Lumitrac-200 plates, 20 μL/well of 20 nM PIM-2 (10 nM final assay concentration) in assay buffer (25 mM HEPES, pH 7.5, 10 mM MgCl2, 50 mM KCl, 0.2% CHAPS, 100 μM Na3VO4, 0.2% BSA and 200 μM TCEP) is delivered, followed by 10 μL/well of test compounds (3 μg/mL final assay concentration in 1% DMSO) that were previously dissolved in DMSO and diluted in assay buffer. A 10 μL volume of a solution containing 4 μM ATP (1 μM final assay concentration) and 20 μM peptide substrate (Biotin-[…], 5 μM final assay concentration) diluted in assay buffer is added to each well and the contents of the wells are mixed. […] The assay plates are read on an Analyst (Molecular Devices) in luminescence mode following additional 15 minutes of incubation at room temperature. Luminescence signals are converted to percent of control (POC) values using the formula: POC=(BCTRL−Signal)÷(BCTRL−PCTRL), where Signal is the test well signal, BCTRL is the average of background control well signals on the plate and PCTRL is the average of positive control well signals on the plate.

T1 sequence (Q9P1W9 whole entry): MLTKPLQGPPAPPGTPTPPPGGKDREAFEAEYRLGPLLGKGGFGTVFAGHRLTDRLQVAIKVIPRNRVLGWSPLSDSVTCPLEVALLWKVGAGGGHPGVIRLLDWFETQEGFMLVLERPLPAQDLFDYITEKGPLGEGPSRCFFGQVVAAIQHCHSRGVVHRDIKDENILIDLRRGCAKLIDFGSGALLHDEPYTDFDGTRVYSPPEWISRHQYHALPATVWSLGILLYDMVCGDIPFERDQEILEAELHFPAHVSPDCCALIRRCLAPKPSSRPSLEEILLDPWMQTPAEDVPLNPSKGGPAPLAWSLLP

Structure (SMILES)	IC50 (PIM-2 [1])	other results
CN1CCCN(c2cncc(-c3cncc(/C=C/C(=O)O)c3)n2)CC1 [compound 37, (E)-3-{5-[6-(4-Methyl-[1,4]diazepan-1-yl)-pyrazin-2-yl]-pyridin-3-yl}-acrylic acid]	0.385 µM	
COC(=O)/C=C/c1cccc(-c2cncc(N3CCCN(C)CC3)n2)c1 [compound 39, (E)-3-{3-[6-(4-Methyl-[1,4]diazepan-1-yl)-pyrazin-2-yl]-phenyl}-acrylic acid methyl ester]	1.4 µM	
CN1CCCN(c2cncc(-c3cccc(/C=C/CO)c3)n2)CC1 [compound 41, (E)-3-{3-[6-(4-Methyl-[1,4]diazepan-1-yl)-pyrazin-2-yl]-phenyl}-prop-2-en-1-ol]		POC @ 5 μg/mL (PIM-2 [1]; percent of control at 5 μg/mL (final starting assay concentration of dose response)): 69POC @ 5 μg/mL
CN1CCCN(c2cncc(-c3cccc(/C=C/C#N)c3)n2)CC1 [compound 42, (E)-3-{3-[6-(4-Methyl-[1,4]diazepan-1-yl)-pyrazin-2-yl]-phenyl}-acrylonitrile]	13 µM	
CN1CCCN(c2cncc(-c3cccc(/C=C/c4nnn[nH]4)c3)n2)CC1 [compound 43, 1-Methyl-4-(6-{3-[(E)-2-(1H-tetrazol-5-yl)-vinyl]-phenyl}-pyrazin-2-yl)-[1,4]diazepane]	0.089 µM	
CN1CCCN(c2cncc(-c3cccc(/C=C/C(=O)NS(C)(=O)=O)c3)n2)CC1 [compound 44, N-((E)-3-{3-[6-(4-Methyl-perhydro-1,4-diazepin-1-yl)-pyrazin-2-yl]-phenyl}-acryloyl)-methanesulfonamide]	2.4 µM	
CN1CCCN(c2cncc(-c3cccc(/C=C/C(=O)NCCO)c3)n2)CC1 [compound 45, (E)-N-(2-Hydroxy-ethyl)-3-{3-[6-(4-methyl-perhydro-1,4-diazepin-1-yl)-pyrazin-2-yl]-phenyl}-acrylamide]		POC @ 3 μg/mL (PIM-2 [2]): 63 POC @ 3 μg/mL

Further lines, with some results ahead:

IC50 (PIM-2 [1])	Structure (SMILES)	other results
1.4 µM	CN1CCCN(c2cncc(-c3cccc(CCC(=O)O)c3)n2)CC1 [compound 38, 3-[3-[6-(4-Methyl-[1,4]diazepan-1-yl)-pyrazin-2-yl]-phenyl]-propionic acid]	
1.2 µM	CN1CCCN(c2cncc(-c3cccc(/C=C/C(N)=O)c3)n2)CC1 [compound 40, (E)-3-{3-[6-(4-Methyl-[1,4]diazepan-1-yl)-pyrazin-2-yl]-phenyl}-acrylamide]	
